Measurements from patent US20220056018A1, “SREBP INHIBITORS COMPRISING A THIOPHENE CENTRAL RING” (Capulus Therapeutics, LLC, priority 2019, published 2022).

Tests used:
SREBP = assay: Reporter Screening Assay (SRE-luciferase reporter, HepG2); assay type: cell-based; details: Homo sapiens; SRE-luciferase reporter HepG2 cells, 24 hours, 0.01 uM to 10 uM; read-out: I: Reporter Screening Assay (Ave EC50 (nM))
Protocol: Reporter Screening Assay: This assay was used to evaluate the effect on transcriptional activity SREBP of selected compounds using an SRE-luciferase reporter construct. On day 1, 10,000 cells were seeded in a 96 well (white) plate as per the plate map in Growth media without antibiotics. Cells were incubated at 37° C. for 8 hours. After 8 hours, cells were washed with DPBS for complete removal of FBS. DPBS was completely removed and Growth media was replaced with phenol free treatment medium (90 μl) with different FBS concentrations. The cells were then incubated at 37° C. for 24 hours with varying doses (0.01 uM to 10 uM) of compounds. Then a Luciferase assay was performed.
Reagents for performing Luciferase assay were stored at −20° C. To a tube of lyophilized assay substrate was added 1 mL Substrate Solvent and mixed well. The Substrate tube after reconstitution was covered with aluminum foil so as to keep it protected from light. The assay buffer was thawed to room temperature. To 20 mL Assay Buffer was added 200 μL of reconstituted 100× Substrate and mixed well. The reconstituted substrate as well as the assay solution (buffer+substrate) was protected from light throughout the procedure by keeping it covered with aluminum foil. Using a multi-channel pipette, 100 μL Assay Solution (buffer+substrate) was added directly to each sample well in Plate 1, which was incubated for 30 min (plate was covered with aluminum foil). After 30 min incubation, the plate was read for total luminescence. Each well was read for 2 seconds in a plate luminometer. (Microplate reader Envision Microplate reader from Perkin Elmer). Precaution was taken to incubate plate exactly for 30 min prior to reading on the plate reader.
SREBPv1 Reporter cell line: HepG2—#32251. Growth Medium: MEM (Corning 10-010), 10% FBS, 1% GlutaMax (Invitrogen Catalog #35050061), […] (Invitrogen Catalog # A1113803) and 1% Penicillin-Streptomycin (Pen-Strep). Treatment Media: Phenol-free MEM (Invitrogen Catalog #51200-038) and 1% GlutaMax (Invitrogen Catalog #35050061). Luciferase Assay: LightSwitch Luciferase Assay Kit (Catalog #32032). LDH assay: Pierce LDH Cytotoxicity Assay Kit (Catalog # SD249616).

[1] = Stability in mouse liver microsomes; assay type: in vitro ADME
Protocol: (§1) Compounds were evaluated for stability in human liver microsomes. A 10 mM stock solution of the compound being evaluated was prepared in DMSO and diluted with water:acetonitrile (1:1) to a concentration of 1 mM. A working concentration of 100 μM was prepared by further dilution with water:acetonitrile (1:1). To make the preincubation mixture, 2.5 μL of the diluted compound was combined with 75 μL of human liver microsomes at 3.33 mg/mL, and 85 μL of 100 mM potassium phosphate buffer, and this mixture was pre-incubated for 10 min at 37° C. To make the 60 minute mixture without cofactor, 32.5 μL of the preincubation mixture was combined with 17.5 μL of 100 mM potassium phosphate buffer and incubated for 60 min at 37° C. To make the 0 min sample with cofactor (NADPH), 16.25 μL of the preincubation mixture was combined with 200 μL of acetonitrile containing internal standard and 8.75 μL of cofactor (NADPH). To make the incubation mixture, 62 μL of cofactor (2.85 mM) was combined with the remaining incubation mixture, and incubated for 60 min at 37° C. To prepare the sample mixture to be evaluated, 25 μL incubation mixture was combined with 200 μL of acetonitrile containing internal standard and vortexed for 5 min at 1200 rpm, then centrifuged for 10 min at 4000 rpm. The supernatant was diluted 2 fold with water and injected on LC-MS/MS. The sample mixture was evaluated by LC-MS/MS using 10 mM ammonium acetate with 0.100 FA as the aqueous mobile phase, and methanol as the organic mobile phase.
Half-Life Mouse Microsomes:
Compounds were evaluated in mouse liver microsomes following a similar procedure as described above for human liver microsomes. A similar procedure could be used to evaluate compounds in rat liver microsomes.

[2] = Stability in human liver microsomes; assay type: in vitro ADME; details: 37° C., NADPH
Protocol: Half-Life Human Microsomes:
as §1

Structure (SMILES)	EC50 (SREBP) [nM]	percent parent remaining after 60 min in liver microsomes [1]	percent of compound remaining after 60 min in human liver microsomes [2]
CC(C)(C)c1cc(-c2csc(-c3ccc(NC(=O)N4CCC(O)CC4)cc3Cl)c2)ccn1 [Compound I-8736, N-(4-(4-(2-(tert-butyl)pyridin-4-yl)thiophen-2-yl)-3-chlorophenyl)-4-hydroxypiperidine-1-carboxamide]	250 to 500	+++ (>60.1 = +++)	+++ (>60.1 = +++)
CC(C)OC(=O)Nc1ccc(-c2cc(-c3ccnc(C(C)(C)C)c3)cs2)c(Cl)c1 [Compound I-8741, Isopropyl (4-(4-(2-(tert-butyl)pyridin-4-yl)thiophen-2-yl)-3-chlorophenyl)carbamate]	< 249	+++ (>60.1 = +++)	+++ (>60.1 = +++)
CC(C)NC(=O)Nc1ccc(-c2cc(-c3ccnc(C(C)(C)C)c3)cs2)c(Cl)c1 [Compound I-8731, 1-(4-(4-(2-(tert-butyl)pyridin-4-yl)thiophen-2-yl)-3-chlorophenyl)-3-isopropylurea]	< 249	++ (30.1-60 = ++)	++ (30.1-60 = ++)

Results, then the molecule that gave them:

EC50 (SREBP) [nM]	percent parent remaining after 60 min in liver microsomes [1]	percent of compound remaining after 60 min in human liver microsomes [2]	Structure (SMILES)
250 to 500	+++ (>60.1 = +++)	++ (30.1-60 = ++)	CC(C)(CO)c1cc(-c2csc(-c3ccc(N4CCOC4=O)cc3Cl)c2)ccn1 [Compound I-8939, 3-(3-chloro-4-(4-(2-(1-hydroxy-2-methylpropan-2-yl)pyridin-4-yl)thiophen-2-yl)phenyl)oxazolidin-2-one]
< 249	+++ (>60.1 = +++)	+++ (>60.1 = +++)	CS(=O)(=O)Nc1ccc(-c2cc(-c3ccnc(C4(CO)CC4)c3)cs2)c(Cl)c1 [Compound I-9002, N-(3-chloro-4-(4-(2-(1-(hydroxymethyl)cyclopropyl)pyridin-4-yl)thiophen-2-yl)phenyl)methanesulfonamide]
> 500	+++ (>60.1 = +++)	+++ (>60.1 = +++)	CC(C)(C)c1cc(-c2csc(-c3ccc(NC(=O)NC4CCC(O)CC4)cc3Cl)c2)ccn1 (stereo not drawn) [Compound I-8742, 1-(4-(4-(2-(tert-butyl)pyridin-4-yl)thiophen-2-yl)-3-chlorophenyl)-3-(4-hydroxycyclohexyl)urea]
> 500	+++ (>60.1 = +++)	+++ (>60.1 = +++)	CC(C)(O)c1cc(-c2csc(-c3ccc(NC(=O)OC4CC4)cc3Cl)c2)ccn1 [Compound I-9065, cyclopropyl (3-chloro-4-(4-(2-(2-hydroxypropan-2-yl)pyridin-4-yl)thiophen-2-yl)phenyl)carbamate]
